These results are taken from US20190070128A1, “USE OF CANNABIDIVARIN IN THE TREATMENT OF AUTISM SPECTRUM DISORDER, ASSOCIATED DISORDERS AND SCHIZOPHRENIA” (GW Research Limited, priority 2016, published 2019).

Assay [1] concerns the target T1, CB1 cannabinoid receptors (Mus musculus, UniProt P47746).
T1 construct: in both MF1 mouse brain and hCB1-CHO cell membranes; from tissue; host or cells: MF1 mouse brain membranes
As to conditions: MF1 mouse brain membranes; extract compared with purified CBDV; cited from earlier work.

Assay [2] has as its system Ube3am-/p+ (AS) mice. Put plainly: audiogenic seizure susceptibility in Angelman syndrome mice. In kind it is in vivo, mouse. Particulars: for mice experiencing seizures: baseline 100%. As for the experimental part:
(§1) Heterozygous mice with maternal deficiency of Ube3A (Ube3am−/p+) and wild type (Ube3am+/p+) were purchased from The Jackson Laboratory (Jackson code: B6.12957-Ube3a tm1Alb/J) and maintained in a C57BL/6 background.
For the audiogenic seizure tests CBDV was administered at 20, 200 and 400 mg/kg.
Seizure susceptibility: Audiogenic seizures were induced by vigorously scraping scissors across the metal grating of the cage lid which produces a 100 DB high frequency loud noise. This was done for 20 seconds. This test consists of 3 phases. In phase 1 all mice were tested for epilepsy. In phase 2 all mice were injected daily with either vehicle or a drug for 7 or 10 days. In phase 3 mice were tested for epilepsy (one hour after last injection).

For assay [3], the system named is neuroinflammatory markers (GFAP, CD11b, TNF-α). In words: neuroinflammation studies, hippocampus, Western blotting, prenatal VPA model. In kind it is in vivo, rat. On the procedure:
At the end of the study, on PND 59, male rats treated with CBDV 20 mg/kg i.p. were sacrificed and the hippocampus was collected 24 hours after the last CBDV injection and stored at −80° C. for evaluation of changes in protein expression of components of the endocannabinoid system (CB1 and CB2 receptors, the endocannabinoid degrading enzymes, FAAH and MAGL and the synthetic enzymes, DAGLα and NAPE-PLD); neuroinflammatory markers (GFAP (astrocytic marker), Iba1 (microglial marker), CD11 b (activated microglial marker), TNF-α (proinflammatory cytokine) and iNOS (inflammatory mediator)); synaptic markers (Synaptophysin (synaptic vesicle protein), PSD-95 (post synaptic density protein) and the neurotrophins, BDNF and IGF by Western blotting.
(A western blot detects proteins with antibodies after separation by electrophoresis.)

The subject of assay [4] is Ube3am-/p+ (AS) mice. In words: tail suspension test in Angelman syndrome mice. In kind it is in vivo, mouse. As to conditions: 20 mg/kg i.p., vs AS vehicle. As for the experimental part: as §1
(§2) Drugs were dissolved in 1:1:18 ethanol:cremophor:0.9% saline, for intraperitoneal (i.p.) administration. Drug treatment was performed daily for 35 days. CBDV was administered at 20 mg/kg.
Tail suspension: The tail suspension test assesses depressive-like behaviour in mice. Mice were individually suspended by the tail on a horizontal bar (50 cm from floor) using adhesive tape placed approximately 4 cm from the tip of the tail. The duration of immobility was recorded in seconds over a period of 6 minutes by a time recorder. Immobility time was defined as the absence of escape-oriented behaviour.

Another assay deals with MeCP2 KO mice. In words: symptom scoring in MeCP2 KO mice. In kind it is in vivo, mouse. As for the experimental part:
Starting from PND 28, mice received a daily intraperitoneal injection of CBDV (or vehicle) at the dose of 2, 20 and 200 mg/kg. Animals were then scored every other day to evaluate the effect of CBDV treatment on motor symptoms (hindlimb clasping, gait, mobility) as well as neurological signs and general conditions (breathing abnormalities, tremors and general condition) present in MeCP2 knockout (KO) mice.
Each of the six symptoms was scored from 0 to 2 (0 corresponds to the symptom being absent or the same as in the wild type (WT) animal; 1 when the symptom was present; 2 when the symptom was severe).
Mobility: the mouse is observed when placed on bench, then when handled gently. 0 =as WT. 1=reduced movement when compared with WT: extended freezing period when first placed on bench and longer periods spent immobile. 2=no spontaneous movement when placed on the bench; mouse can move in response to a gentle prod or a food pellet placed nearby.
Gait: 0=as WT. 1=hind legs are spread wider than WT when walking or running with reduced pelvic elevation, resulting in a ‘waddling’ gait. 2=more severe abnormalities: tremor when feet are lifted, walks backward or ‘bunny hops’ by lifting both rear feet at once.
Hindlimb clasping: mouse observed when suspend by holding base of the tail. 0=legs splayed outward. 1=hindlimbs are drawn toward each other (without touching) or one leg is drawn into the body. 2=both legs are pulled in tightly, either touching each other or touching the body.
Tremor: mouse observed while standing on the flat palm of the hand. 0=no tremor. 1=intermittent mild tremor. 2=continuous tremor or intermittent violent tremor.
Breathing: movement of flanks observed while animal is standing still. 0=normal breathing. 1=periods of regular breathing interspersed with short periods of more rapid breathing or with pauses in breathing. 2=very irregular breathing-gasping or panting.
General condition: mouse observed for indicators of general well-being such as coat condition, eyes and body stance. 0=clean shiny coat, clear eyes, and normal stance. 1=eyes dull, coat dull/un-groomed, and somewhat hunched stance. 2=eyes crusted or narrowed, piloerection, and hunched posture.

In assay [5] the test system is Ube3am-/p+ (AS) mice. In words: rotarod test in Angelman syndrome mice. Particulars: chronic treatment (30 days), 20 mg/kg i.p., vs AS vehicle. In kind it is in vivo, mouse. On the procedure:
as §1, §2
Rotarod: The rotarod test assesses balance and motor coordination of mice. Mice have been measured for the time (in seconds) of equilibrium before falling on a rotary cylinder by a magnet that, activated from the fall of the mouse on the plate, allows to record the time of permanence on the cylinder. […] The animals were analysed by 2 separate tests at 1-h interval in the same day.

T1 sequence (P47746 whole entry): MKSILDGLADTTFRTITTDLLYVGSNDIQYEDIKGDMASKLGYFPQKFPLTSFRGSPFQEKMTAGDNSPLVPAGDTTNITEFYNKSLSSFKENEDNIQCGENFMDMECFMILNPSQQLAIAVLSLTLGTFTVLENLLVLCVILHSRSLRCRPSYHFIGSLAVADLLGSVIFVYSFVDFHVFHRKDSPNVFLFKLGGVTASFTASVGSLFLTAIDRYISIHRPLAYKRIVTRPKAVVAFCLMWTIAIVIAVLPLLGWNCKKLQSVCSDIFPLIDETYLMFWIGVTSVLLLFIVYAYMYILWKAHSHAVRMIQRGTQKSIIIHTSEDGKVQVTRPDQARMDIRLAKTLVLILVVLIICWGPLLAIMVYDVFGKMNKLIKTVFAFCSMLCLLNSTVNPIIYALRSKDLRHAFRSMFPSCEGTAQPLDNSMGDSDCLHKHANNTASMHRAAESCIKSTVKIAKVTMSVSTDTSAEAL

Turning to `C=C(C)[C@@H]1CCC(C)=C[C@H]1c1c(O)cc(CCC)cc1O` [CBDV, Cannabidivarin], the “affinity for CB1 cannabinoid receptors” value in assay [1] was “neither bound with high enough affinity”. For the same compound, the seizure susceptibility entry in the assay with Ube3am-/p+ (AS) mice [2] (AS mice, 20 mg/kg or 200 mg/kg, 7 or 10 days treatment) is given as “no effect”. Also, the “number of mice with seizures” value in the assay on Ube3am-/p+ (AS) mice [2] (AS mice, 400 mg/kg) is on record as “statistically significant decrease”. Further, the mice experiencing seizures in the assay with Ube3am-/p+ (AS) mice [2] (AS mice, 400 mg/kg, after 7 days treatment) came to 60%; in the assay with Ube3am-/p+ (AS) mice [2] (AS mice, 400 mg/kg, after 10 days treatment), 30%. Moreover, in the assay on Ube3am-/p+ (AS) mice [2] (Angelman mice, 400 mg/kg, after 10 days treatment), the “reduction of seizure susceptibility” value worked out at 70%. The “expression of increased inflammatory markers (GFAP, CD11b, TNFα) in hippocampus” value in assay [3] (VPA-exposed male rats, chronic CBDV 20 mg/kg i.p.) is on record as “completely normalised”. In addition, the “expression of inflammatory markers in hippocampus” value in assay [3] (control rats, chronic CBDV) is reported as “no effect”. For the same compound, in the assay on Ube3am-/p+ (AS) mice [4], the “duration of immobility time” value was “significantly reduced”. Further, the mobility entry in the assay with MeCP2 KO mice was “reached statistical significance only at PND 64”. The breathing entry in the assay on MeCP2 KO mice (2 mg/kg, PND 56 to 60) was “significantly improve”; in the assay with MeCP2 KO mice (200 mg/kg, PND 57 and 60), “effective”. For the same compound, the tremors entry in the assay on MeCP2 KO mice (2 mg/kg, PND 63) was “still protective”; with MeCP2 KO mice (200 mg/kg, PND 55 and 63), “still able to reduce tremors”; in the assay with MeCP2 KO mice (all three doses, PND 45-49), “significantly delaying and reducing”. Besides, the total symptom score entry is “significantly improved” with MeCP2 KO mice (2 mg/kg, every time point (PND 45, 47, 49, 55, 56, 57, 58, 60 and 64)); “beneficial effect” with MeCP2 KO mice (200 mg/kg, from PND 47 until PND 58). In addition, the “general conditions (coat and eyes conditions)” value is listed as “significantly effective only at the earlier time point” in the assay on MeCP2 KO mice (20 mg/kg, PND 52); “significantly improved” in the assay with MeCP2 KO mice (2 and 200 mg/kg, PND 52-64). The hindlimb clasping result is on record as “did not significantly affect” in the assay with MeCP2 KO mice (200 mg/kg); “significantly attenuate” with MeCP2 KO mice (lower doses, PND 47 and 49). The gait result with MeCP2 KO mice (200 mg/kg, PND 53 to 57) is listed as “significantly improved”. Besides, in the assay with MeCP2 KO mice (all three doses, vs KO-vehicle), the “total symptom score: appearance of the phenotype” value was “delay and attenuate”. For the same compound, the latency to fall result in the assay with Ube3am-/p+ (AS) mice [5] is recorded as “reduced”.
